Literature values, collected in patent US11938224B1, “Benzonatate modified release solid tablets and capsules” (Tris Pharma, Inc., priority 2016, dated 2024).

Conditions: room temperature, oily liquid

CCCCNc1ccc(C(=O)OCCOCCOCCOCCOCCOCCOCCOCCOCCOC)cc1 [Benzonatate, 2-[2-[2-[2-[2-[2-[2-[2-(2-methoxyethoxy)ethoxy]ethoxy]ethoxy]ethoxy]ethoxy]ethoxy]ethoxy] ethyl-4-butylaminobenzoate]
solubility in water: water soluble
